Data reported in patent publication US9845330B2, “6-nitro-2,3-dihydroimidazo[2,1-b]oxazoles and a process for the preparation thereof” (priority 2013, dated 2017).
≈ marks a conversion by molar mass, not a printed value. Read-outs that look alike come from different tables or passages of the source.

Assays:
[1] = system: M. tuberculosis H37Rv (ATCC 27294); test: MIC by broth dilution method, M. tuberculosis H37Rv; format: cell-based; settings: Mycobacterium tuberculosis, 504 h
[2] = system: macrophage J774 cells line; test: Cytotoxicity assay (MTT) in macrophage J774 cells; format: cell-based; settings: J774 cells, 24 hrs, MTT
Method: The study was carried out using macrophage J774 cells line (ATCC-USA). Cells were grown in Rosewell Park Memorial Institute Medium (RPMI) containing 10% fetal calf serum (FCS) and supplemented with 75 mg/liter penicillin, 100 mg/liter streptomycin, 110 mg/liter Sodium pyruvate, 2.38 gm/liter HEPES, 0.05 mM 2 β-mercaptoethanol, and 2 gm/liter NaHCO3, in a humidified atmosphere in 5% CO2 at 37° C., and were sub-cultured at 1:4 ratio once a week.
Cells were plated at a density of 3×10^4 cells/cm^2 and maintained in culture medium for 12 hours. Cells were seeded onto 96-well flat bottom plates and FCS was reduced to 5% for the experiment. Stock solutions of compounds IA1 to IIC10 were prepared fresh to avoid oxidation. Cells were incubated with the compounds (40 μg/ml) for 24 hrs.
After the completion of incubation, the medium was removed and cell viability was evaluated by assaying for the ability of functional mitochondria to catalyze the reduction of 3-(4,5-dimethylthiazol-2-yl)-2,5-diphenyltetrazolium bromide (MTT) to form formazan salt by mitochondrial dehydrogenases, and determined by Elisa reader at 450 nm (Multiskan Spectrum; Thermo Electron Corporation, USA). Percentage cytotoxicity was calculated with respect to the untreated cells.

[3] = broth dilution, 3 weeks, read-out: MIC M. tb H37Rv
[4] = text summary: sensitive H37Rv as well as MDR and XDR strains of M. tuberculosis, read-out: MIC value

Row | Structure (SMILES) | MIC [1, 3] [µg/mL] | Cytotoxicity [2] [µg/mL] | MIC [1, 4] [µg/mL]
1 | C[C@]1(COc2ccc(-n3cc(-c4ccccc4F)nn3)cc2)Cn2cc([N+](=O)[O-])nc2O1 [IA4, (R)-2-{4-[4-(2-fluorophenyl)-1H-1,2,3-triazol-1-yl]phenoxymethyl}-2,3-dihydro-2-methyl-6-nitroimidazo[2,1-b]oxazole] | 1 (≈ 2.29 µM) | >40 | 
2 | C[C@]1(COc2ccc(-n3cc(-c4ccc(F)cc4F)nn3)cc2)Cn2cc([N+](=O)[O-])nc2O1 [IA7, (R)-2-{4-[4-(2,4-difluorophenyl)-1H-1,2,3-triazol-1-yl]phenoxymethyl}-2,3-dihydro-2-methyl-6-nitroimidazo[2,1-b]oxazole] | 2 (≈ 4.4 µM) | >40 | 
3 | Cc1ccc(-c2cn(-c3ccc(OC[C@@]4(C)Cn5cc([N+](=O)[O-])nc5O4)cc3)nn2)cc1 [IA8, (R)-2-{4-[4-(4-methylphenyl)-1H-1,2,3-triazol-1-yl]phenoxymethyl}-2,3-dihydro-2-methyl-6-nitroimidazo[2,1-b]oxazole] | 1 (≈ 2.31 µM) | >40 | 
4 | CC(C)c1ccc(-c2cn(-c3ccc(OC[C@@]4(C)Cn5cc([N+](=O)[O-])nc5O4)cc3)nn2)cc1 [IA9, (R)-2-{4-[4-(4-isopropylphenyl)-1H-1,2,3-triazol-1-yl]phenoxymethyl}-2,3-dihydro-2-methyl-6-nitroimidazo[2,1-b]oxazole] | 1 (≈ 2.17 µM) | >40 | 
5 | C[C@]1(COc2ccc(-n3cc(-c4cccc(F)c4)nn3)cc2)Cn2cc([N+](=O)[O-])nc2O1 [IA10, (R)-2-{4-[4-(3-fluorophenyl)-1H-1,2,3-triazol-1-yl]phenoxymethyl}-2,3-dihydro-2-methyl-6-nitroimidazo[2,1-b]oxazole] | 2 (≈ 4.58 µM) | >40 | 
6 | CCCCCCCc1cn(-c2ccc(OC[C@@]3(C)Cn4cc([N+](=O)[O-])nc4O3)cc2)nn1 [IA16, (R)-2-{4-[4-heptyl-1H-1,2,3-triazol-1-yl]phenoxymethyl}-2,3-dihydro-2-methyl-6-nitroimidazo[2,1-b]oxazole] | 4 (≈ 9.08 µM) | >40 | 
7 | C[C@]1(COc2cccc(-n3cc(-c4ccc(F)cc4)nn3)c2)Cn2cc([N+](=O)[O-])nc2O1 [IA17, (R)-2-{3-[4-(4-fluorophenyl)-1H-1,2,3-triazol-1-yl]phenoxymethyl}-2,3-dihydro-2-methyl-6-nitroimidazo[2,1-b]oxazole] | 2 (≈ 4.58 µM) | >40 | 
8 | C[C@]1(COc2cccc(-n3cc(-c4ccc(C(F)(F)F)cc4)nn3)c2)Cn2cc([N+](=O)[O-])nc2O1 [IA18, (R)-2-{3-[4-(4-trifluoromethylphenyl)-1H-1,2,3-triazol-1-yl]phenoxymethyl}-2,3-dihydro-2-methyl-6-nitroimidazo[2,1-b]oxazole] | 2 (≈ 4.11 µM) | >40 | 
9 | C[C@]1(COc2cccc(-n3cc(-c4ccc(OC(F)(F)F)cc4)nn3)c2)Cn2cc([N+](=O)[O-])nc2O1 [IA19, (R)-2-{3-[4-(4-trifluoromethoxyphenyl)-1H-1,2,3-triazol-1-yl]phenoxymethyl}-2,3-dihydro-2-methyl-6-nitroimidazo[2,1-b]oxazole] | 4 (≈ 7.96 µM) | >40 | 
10 | C[C@]1(COc2cccc(-n3cc(-c4ccc(F)cc4F)nn3)c2)Cn2cc([N+](=O)[O-])nc2O1 [IA20, (R)-2-{3-[4-(2,4-difluorophenyl)-1H-1,2,3-triazol-1-yl]phenoxymethyl}-2,3-dihydro-2-methyl-6-nitroimidazo[2,1-b]oxazole] | 4 (≈ 8.8 µM) | >40 | 
11 | C[C@]1(COc2ccccc2-n2cc(-c3ccc(F)cc3)nn2)Cn2cc([N+](=O)[O-])nc2O1 [IA21, (R)-2-{2-[4-(4-fluorophenyl)-1H-1,2,3-triazol-1-yl]phenoxymethyl}-2,3-dihydro-2-methyl-6-nitroimidazo[2,1-b]oxazole] | 1 (≈ 2.29 µM) | >40 | 
12 | C[C@]1(COc2ccccc2-n2cc(-c3ccc(C(F)(F)F)cc3)nn2)Cn2cc([N+](=O)[O-])nc2O1 [IA22, (R)-2-{2-[4-(4-trifluoromethylphenyl)-1H-1,2,3-triazol-1-yl]phenoxymethyl}-2,3-dihydro-2-methyl-6-nitroimidazo[2,1-b]oxazole] | 4 (≈ 8.22 µM) | >40 | 
13 | C[C@]1(COc2ccccc2-n2cc(-c3ccc(OC(F)(F)F)cc3)nn2)Cn2cc([N+](=O)[O-])nc2O1 [IA23, (R)-2-{2-[4-(4-trifluoromethoxyphenyl)-1H-1,2,3-triazol-1-yl]phenoxymethyl}-2,3-dihydro-2-methyl-6-nitroimidazo[2,1-b]oxazole] | 4 (≈ 7.96 µM) | >40 | 
14 | C[C@]1(COc2cccc(-n3cc(COc4ccc(C(F)(F)F)cc4)nn3)c2)Cn2cc([N+](=O)[O-])nc2O1 [IA35] | 2 (≈ 3.87 µM) | >40 | 
15 | C[C@]1(COc2cccc(-n3cc(COc4ccccc4F)nn3)c2)Cn2cc([N+](=O)[O-])nc2O1 [IA36] | 2 (≈ 4.29 µM) | >40 | 
16 | Cc1ccc(OCc2cn(-c3cccc(OC[C@@]4(C)Cn5cc([N+](=O)[O-])nc5O4)c3)nn2)cc1 [IA37] | 4 (≈ 8.65 µM) | >40 | 
17 | CC(C)c1ccc(OCc2cn(-c3cccc(OC[C@@]4(C)Cn5cc([N+](=O)[O-])nc5O4)c3)nn2)cc1 [IA38] | 4 (≈ 8.15 µM) | >40 | 
18 | C[C@]1(COc2ccc(-n3nnnc3-c3ccccc3)cc2)Cn2cc([N+](=O)[O-])nc2O1 [IB1, (R)-2-{4-[5-phenyl-1H-tetrazol-1-yl]phenoxymethyl}-2,3-dihydro-2-methyl-6-nitroimidazo[2,1-b]oxazole] | 2 (≈ 4.77 µM) | >40 | 1 to 4 (≈ 2.38 to 9.54 µM)
19 | C[C@]1(COc2ccc(-n3nnnc3-c3ccc(OC(F)(F)F)cc3)cc2)Cn2cc([N+](=O)[O-])nc2O1 [IB2, (R)-2-{4-[5-(4-trifluoromethoxyphenyl)-1H-tetrazol-1-yl]phenoxymethyl}-2,3-dihydro-2-methyl-6-nitroimidazo[2,1-b]oxazole] | 2 (≈ 3.97 µM) | >40 | 1 to 4 (≈ 1.99 to 7.95 µM)
20 | Cc1ccc(-c2nnnn2-c2ccc(OC[C@@]3(C)Cn4cc([N+](=O)[O-])nc4O3)cc2)cc1 [IB3, (R)-2-{4-[5-(4-methylphenyl)-1H-tetrazol-1-yl]phenoxymethyl}-2,3-dihydro-2-methyl-6-nitroimidazo[2,1-b]oxazole] | 4 (≈ 9.23 µM) | >40 | 1 to 4 (≈ 2.31 to 9.23 µM)
21 | C[C@]1(COc2ccc(-n3nnnc3-c3ccc(F)cc3)cc2)Cn2cc([N+](=O)[O-])nc2O1 [IB4, (R)-2-{4-[5-(4-fluorophenyl)-1H-tetrazol-1-yl]phenoxymethyl}-2,3-dihydro-2-methyl-6-nitroimidazo[2,1-b]oxazole] | 4 (≈ 9.15 µM) | >40 | 1 to 4 (≈ 2.29 to 9.15 µM)
22 | C[C@]1(COc2ccc(-n3nnnc3-c3ccc(C(F)(F)F)cc3)cc2)Cn2cc([N+](=O)[O-])nc2O1 [IB5, (R)-2-{4-[5-(4-trifluoromethylphenyl)-1H-tetrazol-1-yl]phenoxymethyl}-2,3-dihydro-2-methyl-6-nitroimidazo[2,1-b]oxazole] | 1 (≈ 2.05 µM) | >40 | 1 to 4 (≈ 2.05 to 8.21 µM)
23 | CCc1ccc(-c2nnnn2-c2ccc(OC[C@@]3(C)Cn4cc([N+](=O)[O-])nc4O3)cc2)cc1 [IB6, (R)-2-{4-[5-(4-ethylphenyl)-1H-tetrazol-1-yl]phenoxymethyl}-2,3-dihydro-2-methyl-6-nitroimidazo[2,1-b]oxazole] | 2 (≈ 4.47 µM) | >40 | 1 to 4 (≈ 2.23 to 8.94 µM)
24 | C[C@]1(COc2ccc(-n3nnnc3Oc3ccc(F)cc3)cc2)Cn2cc([N+](=O)[O-])nc2O1 [IB7, (R)-2-{4-[5-(4-fluorophenoxy)-1H-tetrazol-1-yl]phenoxymethyl}-2,3-dihydro-2-methyl-6-nitroimidazo[2,1-b]oxazole] | 2 (≈ 4.41 µM) | >40 | 1 to 4 (≈ 2.21 to 8.82 µM)
25 | C[C@]1(COc2ccc(-n3nnnc3Oc3ccc(C(F)(F)F)cc3)cc2)Cn2cc([N+](=O)[O-])nc2O1 [IB8, (R)-2-{4-[5-(4-trifluoromethylphenoxy)-1H-tetrazol-1-yl]phenoxymethyl}-2,3-dihydro-2-methyl-6-nitroimidazo[2,1-b]oxazole] | 4 (≈ 7.95 µM) | >40 | 1 to 4 (≈ 1.99 to 7.95 µM)
26 | Cc1ccc(Oc2nnnn2-c2ccc(OC[C@@]3(C)Cn4cc([N+](=O)[O-])nc4O3)cc2)cc1 [IB9, (R)-2-{4-[5-(4-methylphenoxy)-1H-tetrazol-1-yl]phenoxymethyl}-2,3-dihydro-2-methyl-6-nitroimidazo[2,1-b]oxazole] | 4 (≈ 8.9 µM) | >40 | 1 to 4 (≈ 2.23 to 8.9 µM)
27 | C[C@]1(COc2ccc(-n3nnnc3Oc3ccc(OC(F)(F)F)cc3)cc2)Cn2cc([N+](=O)[O-])nc2O1 [IB10, (R)-2-{4-[5-(4-trifluoromethoxyphenoxy)-1H-tetrazol-1-yl]phenoxymethyl}-2,3-dihydro-2-methyl-6-nitroimidazo[2,1-b]oxazole] | 1 (≈ 1.93 µM) | >40 | 1 to 4 (≈ 1.93 to 7.7 µM)
